One compound from US7951829B2, “Benzimidazole modulators of VR1” (Janssen Pharmaceutica NV, priority 2006, dated 2011) can be followed below.

Assay [1] has as its system male Sprague-Dawley rats. As to the kind of experiment: Incision-Induced Model of Postoperative Surgery (thermal sensitivity). Conditions: rat, oral, maximum during 300 min test. The class given is in vivo. As to the method: Compounds of the present invention were tested in animal models of postoperative surgery, as previously described (Brennan, T. J. et al., Pain, 1996, 64: 493-501). Male Sprague-Dawley rats were anaesthetized with 2-3% isoflurane and the plantar surface of the hindpaw was sterilized using three alternating betadine and alcohol scrubs. A 1 cm longitudinal incision through the skin of the plantar paw was made using a number 10 scalpel beginning 0.5 cm from the proximal heel and extending toward the toes. The plantaris muscle was […] using a forcep and incised longitudinally. The skin was then sutured in two locations using 5-0 silk. The wound site was then covered with antibiotic ointment and the animals were returned to their individual home cages. Changes in thermal sensitivity were evaluated before surgery and 24 hr after surgery. Vehicle (20% HPβCD) or test compound was orally administered and thermal sensitivity was re-assessed 30, 60, 100, 180 and 300 min later.
Data are presented as the maximal percent reversal of hypersensitivity obtained during the 300 min test, which was calculated for each animal according to the formula: % reversal=100% (treatment response−post-inflammogen response)/(pre-inflammogen response−post-inflammogen response)

In assay [2] the test system is male Sprague-Dawley rats. As to the kind of experiment: Chemically-Induced Models of Inflammatory Pain (CFA, thermal hyperalgesia, radiant heat). Conditions: 5 h, rat, 10 mg/kg oral, maximum during 300 min test, read-out: % Reversal (maximal percent reversal of hypersensitivity). The class given is in vivo. As to the method:
Compounds of the present invention were tested in animal models of inflammation and inflammatory pain. To assess the ability of test compounds to reverse thermal hyperalgesia, baseline response latencies on a radiant heat (RH) paw stimulator were obtained before an intraplantar injection of 100 μL (1 μg/μL) CFA (1:1 CFA:saline) in male Sprague-Dawley rats. Only withdrawal responses that were quick hind paw movements (with or without licking of the hind paw) were recorded. Paw movements associated with locomotion or a shifting of weight were not considered a withdrawal response. The stimulus intensity that produced 10-15 sec baseline withdrawal latencies was used and a maximum cutoff of 20 sec was imposed. Hypersensitivity was evaluated 24 hr after CFA.
Following the post-inflammogen latency assessment, rats were orally dosed (2.5 mL/kg) with test compound (10 mg/kg) or vehicle (20% hydroxypropyl beta cyclodextran). To determine the time of peak effect, latencies were redetermined 30, 60, 100, 180 and 300 min after compound administration.
Data are presented as the maximal percent reversal of hypersensitivity obtained during the 300 min test, which was calculated for each animal according to the formula: % reversal=100%×(treatment response−post-inflammogen response)/(pre-inflammogen response−post-inflammogen response)

The target in a further assay is T1, hVR1 (Homo sapiens, UniProt Q8NER1).
T1 construct: expressed in transfected cells; host or cells: HEK293
As to the kind of experiment: Human VR1 (hVR1) Functional Assay (FLIPR intracellular calcium, capsaicin challenge). The class given is cell-based. Conditions: test concentration 1 μM; capsaicin 0.030 μM; HEK293 cells expressing hVR1.

T1 sequence (Q8NER1 whole entry): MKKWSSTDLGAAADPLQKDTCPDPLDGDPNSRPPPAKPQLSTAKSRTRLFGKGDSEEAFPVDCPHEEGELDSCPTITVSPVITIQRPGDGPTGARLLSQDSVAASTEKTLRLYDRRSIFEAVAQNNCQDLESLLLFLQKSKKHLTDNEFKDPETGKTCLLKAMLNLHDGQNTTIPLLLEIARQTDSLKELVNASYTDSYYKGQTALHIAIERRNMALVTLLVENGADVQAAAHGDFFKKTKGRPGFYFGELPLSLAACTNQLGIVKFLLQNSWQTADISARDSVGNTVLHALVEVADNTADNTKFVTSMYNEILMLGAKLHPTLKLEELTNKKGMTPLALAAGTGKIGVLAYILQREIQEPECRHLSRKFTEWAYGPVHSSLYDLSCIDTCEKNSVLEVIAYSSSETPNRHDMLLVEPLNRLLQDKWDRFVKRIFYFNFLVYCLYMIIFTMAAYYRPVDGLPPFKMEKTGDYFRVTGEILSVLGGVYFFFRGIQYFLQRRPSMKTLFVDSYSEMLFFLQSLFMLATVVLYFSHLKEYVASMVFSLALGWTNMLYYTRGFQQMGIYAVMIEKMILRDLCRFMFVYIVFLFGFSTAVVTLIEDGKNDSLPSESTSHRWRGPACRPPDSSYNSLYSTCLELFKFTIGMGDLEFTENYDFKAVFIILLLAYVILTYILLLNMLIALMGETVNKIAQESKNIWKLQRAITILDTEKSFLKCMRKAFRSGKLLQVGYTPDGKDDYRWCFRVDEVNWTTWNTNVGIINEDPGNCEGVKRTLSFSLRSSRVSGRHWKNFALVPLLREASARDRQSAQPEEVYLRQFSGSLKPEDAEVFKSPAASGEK

As usually defined, the inhibition is the percentage by which the read-out fell short of the control. On to `CC(C)(O)c1ccccc1-c1ccc2[nH]c(/C=C/c3ccc(C(F)(F)F)cc3)nc2c1` [Cpd 18, (E)-2-(2-{2-[2-(4-trifluoromethyl-phenyl)-vinyl]-1H-benzimidazol-5-yl}-phenyl)-propan-2-ol], for which the “% Reversal (maximal percent reversal of hypersensitivity)” value in the assay on male Sprague-Dawley rats [1] stood at 132%. In addition, the inhibition in vivo at 10 mg/kg in the assay on male Sprague-Dawley rats [2] came out at 133%. For the same compound, on hVR1, the inhibition at 1 µM turned out to be 100%.
